# Results taken from PMC11892739, “Site-specific molecular glues for the 14-3-3/Tau pS214 protein–protein interaction via reversible covalent imine tethering” (RSC Medicinal Chemistry, 2025).
# Biological target: T1, 14-3-3ζ/C-Raf peptide (Homo sapiens, UniProt P63104)
# T1 construct: made in house; host or cells: NiCo21 (DE3) E. coli
# Test: FA peptide screen, 14-3-3ζ titration to client peptide and compound: C-Raf
# Assay type: binding
# Settings: 250 μM compound, 100 nM peptide; +1 Thr
# Experimental: Since the hub protein 14-3-3 binds to hundreds of phosphoprotein partners, selectivity of PPI stabilization is a major challenge. The interplay of chemical reactivity, and the topology and functionality of the composite binding pocket shaped by 14-3-3 and Tau potentially provide entries towards selective stabilization. […] Here, 14-3-3ζ was titrated to a constant concentration of client peptide (100 nM) and compound (250 μM) to determine the SF250μM values for the particular 14-3-3 PPI. A variety of 14-3-3 binding proteins was represented in this client panel whereby the size and hydrophobicity of the +1 amino acid were varied. […]
# chromatography (HisTrap high performance cartridges, Cytiva). Typically two 5 mL columns were used for a 2 L culture in which the lysate was loaded on the column, washed with 10 CV wash buffer (50 mM Hepes, pH 8.0, 300 mM NaCl, 25 mM imidazole, 2 mM βME), and eluted with several fractions (2-4 CV) of elution buffer (50 mM Hepes, pH 8.0, 300 mM NaCl, 250 mM imidazole, 2 mM βME). […] Dialyzed protein was concentrated to ∼40 mg/mL, analyzed by Q -Tof LC/MS, and aliquots were flash -frozen for storage at −80 °C. […] Fractions containing the 14 -3-3 protein were pooled and concentrated to ∼60 mg/mL, analyzed Q -Tof LC/MS, and aliquots were flash -frozen for storage at −80°C.
# Fluorescence Anisotropy – compound titration […]
# T1 sequence (P63104 whole entry): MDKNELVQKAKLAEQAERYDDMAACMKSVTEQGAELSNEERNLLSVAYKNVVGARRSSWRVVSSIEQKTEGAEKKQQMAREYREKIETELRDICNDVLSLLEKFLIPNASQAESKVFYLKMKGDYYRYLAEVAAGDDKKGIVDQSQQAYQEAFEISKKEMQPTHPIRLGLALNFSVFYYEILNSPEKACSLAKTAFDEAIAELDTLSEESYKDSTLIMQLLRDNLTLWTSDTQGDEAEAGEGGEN
structure (smiles),measurement,value
CCc1ccc(-c2nccn2-c2ccc(C=O)c(Br)c2)cc1 [Compound 18],stabilization of 14-3-3/C-Raf peptide (in words),did not show significant stabilizing activity
